Laboratory results from patent US11696917B2, “Agent enhancing antitumor effect using pyrazolo[3,4-d]pyrimidine compound” (TAIHO PHARMACEUTICAL CO., LTD., priority 2017, dated 2023).

Test system: NCI-N87 (human stomach cancer)
Assay: Combination of Compound 1 and other antitumor agents (in vitro), CellTiter-Glo, median effect method
Type: cell-based
Method: The supplier of each reagent, the suppliers of tumor cell lines, the media used, and the numbers of cells to be inoculated are shown in the tables below.
The cells were inoculated at 20 μL/well to a 384-well culture plate (Corning Inc.). The plate inoculated with the cells were cultured in an incubator set to 37° C. and 5% CO2. On the day following inoculation, each of mixed solutions of Compound 1 and each other antitumor agent at varying combinations of concentrations was added to the cells. Specifically, 8 serial dilutions (including (0 nM)) of Compound 1 and 10 serial dilutions (including (0 nM)) of the other antitumor agent were prepared using Leibovitz's L-15 medium containing 10% FBS, or ATCC formulated RPMI-1640 medium containing 10% FBS. Drug solutions in which equal amounts of the respective serial dilutions of the compounds were dispensed were mixed at a ratio of 1:1 to prepare a total of 80 mixed drug solutions including every combination. Each of these mixed drug solutions was added at 5 μL/well (N=4) to the plate, followed by further culture for 3 days under conditions of 37° C. and 5% CO2.
Three days later, CellTiter-Glo™ 2.0 Reagent (Promega Corporation) was added thereto at 25 μL/well, and chemiluminescence was measured using a plate reader (EnSpire® Multimode Plate Reader, PerkinElmer Japan Co., Ltd.).
The enhancement of an effect by combined use of the drugs was evaluated according to a method known in the art (a method described in Trends Pharmacol. Sci., 4, 450-454, 1983 or Pharmacol Rev., 58 (3), 621-81, 2006).
An average value from 4 wells of each combination was calculated from the obtained data, and a cell survival rate normalized against a control supplemented with a medium containing a vehicle was calculated. A Fa (fraction of affect) value was calculated by subtracting the cell survival rate from 1. Median effect analysis software CalcuSyn 2.0 (CalcuSyn, Inc.) for calculation by the median effect method was used in the calculation of CI.
As for the combinations of the concentrations of both the drugs for calculating CI, a Fa value closer to 1 presumably means a concentration range in which one of the drugs had too strong an effect, and a Fa value closer to 0 presumably means a concentration range in which any of the drugs had too weak an effect. Since these concentration ranges were not appropriate for the discussion of a synergistic effect, combinations that satisfied 0.2 S Fa 0.8 were extracted from the combinations of the respective concentrations of Compound 1 and the other antitumor agent on the basis of the calculated Fa value.
An effect of combined use was determined as shown in the table below (Pharmacol Rev., 58 (3), p. 621-81, 2006).

[1] = Compound 1 0.137 nM + Cisplatin 2062 nM, ratio 1:15030, NCI-N87
[2] = Compound 1 0.137 nM + Gemcitabine 1.37 nM, ratio 1:10, NCI-N87
[3] = Compound 1 0.137 nM + Gemcitabine 4.12 nM, ratio 1:30, NCI-N87
[4] = Compound 1 0.137 nM + Gemcitabine 12.3 nM, ratio 1:90, NCI-N87
[5] = Compound 1 0.137 nM + Trifluridine 12346 nM, ratio 1:90000, NCI-N87
[6] = Compound 1 0.412 nM + Cisplatin 2062 nM, ratio 1:5010, NCI-N87
[7] = Compound 1 0.412 nM + Cisplatin 6185 nM, ratio 1:15030, NCI-N87
[8] = Compound 1 0.412 nM + FdUrd 4115 nM, ratio 1:10000, NCI-N87
[9] = Compound 1 0.412 nM + FdUrd 12346 nM, ratio 1:30000, NCI-N87
[10] = Compound 1 0.412 nM + FdUrd 37037 nM, ratio 1:90000, NCI-N87
[11] = Compound 1 0.412 nM + Trifluridine 1372 nM, ratio 1:3333, NCI-N87
[12] = Compound 1 0.412 nM + Trifluridine 4115 nM, ratio 1:10000, NCI-N87
[13] = Compound 1 0.412 nM + Trifluridine 12346 nM, ratio 1:30000, NCI-N87
[14] = Compound 1 0.412 nM + Trifluridine 37037 nM, ratio 1:90000, NCI-N87
[15] = Compound 1 1.24 nM + Cisplatin 6185 nM, ratio 1:5010, NCI-N87
[16] = Compound 1 1.24 nM + Cisplatin 18556 nM, ratio 1:15030, NCI-N87
[17] = Compound 1 1.24 nM + FdUrd 12346 nM, ratio 1:10000, NCI-N87
[18] = Compound 1 1.24 nM + FdUrd 37037 nM, ratio 1:30000, NCI-N87
[19] = Compound 1 1.24 nM + FdUrd 111111 nM, ratio 1:90000, NCI-N87
[20] = Compound 1 1.24 nM + Gemcitabine 1.37 nM, ratio 1:1.1, NCI-N87
[21] = Compound 1 1.24 nM + Gemcitabine 4.12 nM, ratio 1:3.3, NCI-N87
[22] = Compound 1 1.24 nM + Gemcitabine 12.3 nM, ratio 1:10, NCI-N87
[23] = Compound 1 1.24 nM + Gemcitabine 37.0 nM, ratio 1:30, NCI-N87
[24] = Compound 1 1.24 nM + Gemcitabine 111 nM, ratio 1:90, NCI-N87
[25] = Compound 1 1.24 nM + Paclitaxel 5.56 nM, ratio 1:4.5, NCI-N87
[26] = Compound 1 1.24 nM + Trifluridine 1372 nM, ratio 1:1111, NCI-N87
[27] = Compound 1 1.24 nM + Trifluridine 4115 nM, ratio 1:3333, NCI-N87
[28] = Compound 1 1.24 nM + Trifluridine 12346 nM, ratio 1:10000, NCI-N87
[29] = Compound 1 1.24 nM + Trifluridine 37037 nM, ratio 1:30000, NCI-N87
[30] = Compound 1 1.24 nM + Trifluridine 111111 nM, ratio 1:90000, NCI-N87
[31] = Compound 1 3.70 nM + Cisplatin 2062 nM, ratio 1:557, NCI-N87
[32] = Compound 1 3.70 nM + Cisplatin 6185 nM, ratio 1:1670, NCI-N87
[33] = Compound 1 3.70 nM + Cisplatin 18556 nM, ratio 1:5010, NCI-N87
[34] = Compound 1 3.70 nM + FdUrd 4115 nM, ratio 1:1111, NCI-N87
[35] = Compound 1 3.70 nM + FdUrd 12346 nM, ratio 1:3333, NCI-N87
[36] = Compound 1 3.70 nM + FdUrd 37037 nM, ratio 1:10000, NCI-N87
[37] = Compound 1 3.70 nM + FdUrd 111111 nM, ratio 1:30000, NCI-N87

Compound: C=CC(=O)N1CCC[C@@H](n2nc(C(=O)Nc3ccc(CC(=O)N(C)C)c(C)c3C)c3c(N)ncnc32)C1 [Compound 1, (R)-1-(1-acryloylpiperidin-3-yl)-4-amino-N-(4-(2-(dimethylamino)-2-oxoethyl)-2,3-dimethylphenyl)-1H-pyrazolo[3,4-d]pyrimidine-3-carboxamide]
- CI [1]: 0.62
- Fa [1]: 0.39
- CI [2]: 0.03
- Fa [2]: 0.69
- CI [3]: 0.37
- Fa [3]: 0.68
- CI [4]: 0.01
- Fa [4]: 0.73
- CI [5]: 0.26
- Fa [5]: 0.43
- CI [6]: 0.64
- Fa [6]: 0.36
- CI [7]: 0.57
- Fa [7]: 0.55
- CI [8]: 0.39
- Fa [8]: 0.25
- CI [9]: 0.46
- Fa [9]: 0.30
- CI [10]: 0.63
- Fa [10]: 0.41
- CI [11]: 0.35
- Fa [11]: 0.26
- CI [12]: 0.65
- Fa [12]: 0.26
- CI [13]: 0.38
- Fa [13]: 0.41
- CI [14]: 0.34
- Fa [14]: 0.54
- CI [15]: 0.40
- Fa [15]: 0.60
- CI [16]: 0.42
- Fa [16]: 0.72
- CI [17]: 0.58
- Fa [17]: 0.33
- CI [18]: 0.70
- Fa [18]: 0.39
- CI [19]: 0.39
- Fa [19]: 0.54
- CI [20]: 0.07
- Fa [20]: 0.70
- CI [21]: 0.06
- Fa [21]: 0.71
- CI [22]: 0.04
- Fa [22]: 0.77
- CI [23]: 0.05
- Fa [23]: 0.73
- CI [24]: 0.05
- Fa [24]: 0.72
- CI [25]: 0.45
- Fa [25]: 0.50
- CI [26]: 0.78
- Fa [26]: 0.24
- CI [27]: 0.71
- Fa [27]: 0.31
- CI [28]: 0.37
- Fa [28]: 0.48
- CI [29]: 0.41
- Fa [29]: 0.55
- CI [30]: 0.68
- Fa [30]: 0.59
- CI [31]: 0.58
- Fa [31]: 0.54
- CI [32]: 0.38
- Fa [32]: 0.67
- CI [33]: 0.42
- Fa [33]: 0.75
- CI [34]: 0.82
- Fa [34]: 0.39
- CI [35]: 0.58
- Fa [35]: 0.47
- CI [36]: 0.41
- Fa [36]: 0.56
- CI [37]: 0.60
- Fa [37]: 0.57
